# Patent publication US10125100B2, “Kinase inhibitors” (Respivert Limited, priority 2014, dated 2018)
# Structures can show the parent of a compound that is named as a salt.
# Experiments:
# [1] = Solubility in fasted-state simulated colonic fluid (FaSSCoF); type: physicochemical; conditions: for pH 6.5 FaSSCoF Solubility, Run 2 / pH 6.5 FaSSCoF Solubility, Run 1: 24 h; for solubility thermodynamic at 24 h: 25 °C, pH 6.5, fassgf or other biorelevant, thermodynamic from solid
# Protocol: The solubilities of compounds of the invention in FaSSCoF at pH 6.5 are determined using a modification of a previously-reported procedure (Vertzoni, M., et al. Pharm. Res. 2010, 27, 2187-2196). In place of the bile salt extract employed in the original procedure (which extract is no longer available), the modified procedure uses a mixture of sodium taurochlorate (0.15 g), glycocholic acid (0.15 g), ursodeoxycholic acid (0.05 g), cholic acid (0.05 g), and glycodeoxycholic acid (0.05 g). These five bile acids are ground together with a mortar and pestle to produce a fine white powder that is incorporated into the FaSSCoF, as outlined below.
# Tris(hydroxymethyl)aminomethane (Tris; 0.275 g) and maleic acid (0.44 g) are dissolved in water (35 mL) to give a solution whose pH is adjusted to 6.5 by treatment with 0.5M NaOH (ca. 12 mL). The solution is then made up to 50 mL with water. A portion of this Tris/maleate buffer solution (ca. 25 mL) is added to a 0.5 L round-bottomed flask, before being treated with 0.00565 g of the bile acid mixture described above. Solutions of phosphatidylcholine (0.0111 g) in DCM (0.15 mL) and palmitic acid (0.0013 g) in DCM (0.15 mL) are added, then the organic solvent is evaporated off under reduced pressure at 40° C. until a clear solution, with no perceptible DCM odour, is achieved. The volume of the evaporated solution is adjusted to 50 mL by addition of the remainder of Tris/maleate buffer, then BSA (0.115 g) is added, before being dissolved by gentle agitation.
# Test compounds are suspended in the pH 6.5 FaSSCoF medium to give a maximum final concentration of 2-10 mg/mL. The suspensions are equilibrated at 25° C. for 24 h, before being filtered through a glass fibre C filter. The filtrates are then diluted as appropriate for injection and quantification by HPLC with reference to a standard. Different volumes of the standard, diluted and undiluted sample solutions are injected and the solubilities are calculated using the peak areas determined by integration of the peak found at the same retention time as the principal peak in the standard injection.
# Jurkat cells = test: (r) Cell cytotoxicity assay; type: cell-based, human; conditions: 24 hours
# Procedure, shortened: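 Viability read by flow cytometry as the fraction of propidium iodide-negative cells (7.5 μg/mL PI, 15 min), relative to 1.0% DMSO control. Beforehand, 1×10^5 Jurkat cells in RPMI/10% FBS were treated 24 h at 37° C., 5% CO2 with test compound at final 20, 5 or 1 μg/mL.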
# [2] = Hydrolytic stability study; type: physicochemical; conditions: DMSO/water (3:1); for % Parent Remaining: 1 mg/mL
# Protocol: Chemical stability of compounds of the invention was assessed in a mixture of DMSO and water (3:1) at a test compound concentration of 1 mg/mL.
# General HPLC Procedure • Agilent, Waters X-Select C18, 2.5 μm, 4.6×30 mm column, 4 min method, 5-95% MeCN/water (0.1% formic acid). Flow rate 2.5 mL/min. Column Oven Temperature 40° C. Detection 254 nm.
# Sample Preparation • A 1.0 mg sample of test compound was dissolved in 750 μL of DMSO. Water (250 μL) was added slowly, ensuring no precipitation occurred.
# Recording Stability • A 50 μL aliquot of the test solution was removed and analysed in duplicate by 5 μL HPLC injections. The peak area for the test compound was recorded following manual integration of the corresponding UV trace. • The test solution was heated to 60° C., with stirring, and 50 μL aliquots removed for HPLC analysis at 5 and 24 h timepoints.
smiles,measurement,setting,value
"COc1cc(Nc2cc(Oc3ccc(NC(=O)Nc4cc(C(C)(C)C)cc(NS(C)(=O)=O)c4OC)c4ccccc34)ccn2)ccc1C(=O)O [1 (sodium salt), 4-((4-((4-(3-(5-(tert-Butyl)-2-methoxy-3-(methylsulfonamido)phenyl)ureido)naphthalen-1-yl)oxy)pyridin-2-yl)amino)-2-methoxybenzoic acid]","pH 6.5 FaSSCoF Solubility, Run 2",[1],0.032 mg/mL
"COc1cc(Nc2nccc(Oc3ccc(NC(=O)Nc4cc(C(C)(C)C)cc(NS(C)(=O)=O)c4OC)c4ccccc34)n2)ccc1C(=O)NCCC1CCN(C)CC1 [17(an), 4-((4-((4-(3-(5-(tert-butyl)-2-methoxy-3-(methylsulfonamido)phenyl)ureido)naphthalen-1-yl)oxy)pyrimidin-2-yl)amino)-2-methoxy-N-(2-(1-methylpiperidin-4-yl)ethyl)benzamide]",% Viability at 1 μg/mL,Jurkat cells,97.9%
same,% Viability at 5 μg/mL,Jurkat cells,37.9%
same,% Viability at 20 μg/mL,Jurkat cells,1.1%
same,"pH 6.5 FaSSCoF Solubility, Run 2",[1],0.049 mg/mL
"COc1cc(Nc2cc(Oc3ccc(NC(=O)Nc4cc(C(C)(C)C)cc(NS(C)(=O)=O)c4OC)c4ccccc34)ccn2)ccc1C(=O)NCC(=O)O [17(ar) (hydrochloride salt), 2-(4-((4-((4-(3-(5-(tert-Butyl)-2-methoxy-3-(methylsulfonamido)phenyl)ureido)naphthalen-1-yl)oxy)pyridin-2-yl)amino)-2-methoxybenzamido)acetic acid]","pH 6.5 FaSSCoF Solubility, Run 2",[1],0.198 mg/mL
"COc1cc(Nc2cc(Oc3ccc(NC(=O)Nc4cc(C(C)(C)C)cc(NS(C)(=O)=O)c4OC)c4ccccc34)ccn2)ccc1C(=O)NCCC(=O)O [17(ay) (hydrochloride salt), 3-(4-((4-((4-(3-(5-(tert-Butyl)-2-methoxy-3-(methylsulfonamido)phenyl)ureido)-naphthalen-1-yl)oxy)pyridin-2-yl)amino)-2-methoxybenzamido)propanoic acid]","pH 6.5 FaSSCoF Solubility, Run 2",[1],0.028 mg/mL
"COc1cc(Nc2cc(Oc3ccc(NC(=O)Nc4cc(NS(C)(=O)=O)cc(C(C)(C)C)c4)c4ccccc34)ccn2)ccc1C(=O)NCCCN1CCN(C)CC1 [17(bp), 4-((4-((4-(3-(3-(tert-Butyl)-5-(methylsulfonamido)phenyl)ureido)naphthalen-1-yl)oxy)pyridin-2-yl)amino)-2-methoxy-N-(3-(4-methylpiperazin-1-yl)propyl)benzamide]",% Viability at 1 μg/mL,Jurkat cells,93.2%
same,% Viability at 5 μg/mL,Jurkat cells,41.0%
same,% Viability at 20 μg/mL,Jurkat cells,2.0%
same,"pH 6.5 FaSSCoF Solubility, Run 2",[1],0.024 mg/mL
"COc1cc(Nc2cc(Oc3ccc(NC(=O)Nc4cc(C(C)(C)C)cc(NS(C)(=O)=O)c4OC)c4ccccc34)ccn2)ccc1C(=O)NCCNC(=O)CCC(=O)O [17(cd) (hydrochloride salt), 4-((2-(4-((4-((4-(3-(5-(tert-Butyl)-2-methoxy-3-(methylsulfonamido)phenyl)ureido)-naphthalen-1-yl)oxy)pyridin-2-yl)amino)-2-methoxybenzamido)ethyl)amino)-4-oxobutanoic acid]","pH 6.5 FaSSCoF Solubility, Run 2",[1],0.049 mg/mL
"COc1cc(Nc2cc(Oc3ccc(NC(=O)Nc4cc(C(C)(C)C)cc(NS(C)(=O)=O)c4OC)c4ccccc34)ccn2)ccc1C(=O)N1C[C@H](O)[C@@H](O)[C@H](O)[C@H]1CO [17(ci), N-(5-(tert-Butyl)-2-methoxy-3-(3-(4-((2-((3-methoxy-4-((2R,3R,4R,5S)-3,4,5-trihydroxy-2-(hydroxymethyl)piperidine-1-carbonyl)phenyl)amino)pyridin-4-yl)oxy)naphthalen-1-yl)ureido)phenyl)methanesulfonamide]",solubility thermodynamic at 24 h,[1],6 µg/mL
same,"pH 6.5 FaSSCoF Solubility, Run 2",[1],0.006 mg/mL
"COc1cc(Nc2cc(Oc3ccc(NC(=O)Nc4cc(C(C)(C)C)cc(NS(C)(=O)=O)c4OC)c4ccccc34)ccn2)ccc1C(=O)NCCOCCOCCOP(=O)(O)O [19 (sodium salt), 2-(2-(2-(4-((4-((4-(3-(5-(tert-Butyl)-2-methoxy-3-(methylsulfonamido)phenyl)ureido)-naphthalen-1-yl)oxy)pyridin-2-yl)amino)-2-methoxybenzamido)ethoxy)ethoxy)ethyl dihydrogen phosphate]",solubility thermodynamic at 24 h,[1],> 4700 µg/mL
same,"pH 6.5 FaSSCoF Solubility, Run 2",[1],>4.7 mg/mL
"COc1cc(Nc2cc(Oc3ccc(NC(=O)Nc4cc(C(C)(C)C)cc(NS(C)(=O)=O)c4OC)c4ccccc34)ccn2)ccc1P(C)(=O)O [44 (ammonium salt), (4-((4-((4-(3-(5-(tert-Butyl)-2-methoxy-3-(methylsulfonamido)phenyl)ureido)naphthalen-1-yl)oxy)pyridin-2-yl)amino)-2-methoxyphenyl)(methyl)phosphinic acid]","pH 6.5 FaSSCoF Solubility, Run 1",[1],>2.4 mg/mL
same,"pH 6.5 FaSSCoF Solubility, Run 2",[1],>2.4 mg/mL
"COc1cc(Nc2cc(Oc3ccc(NC(=O)Nc4cc(C(C)(C)C)cc(NS(C)(=O)=O)c4OC)c4ccccc34)ccn2)ccc1P(C)(=O)O [44 (sodium salt), (4-((4-((4-(3-(5-(tert-Butyl)-2-methoxy-3-(methylsulfonamido)phenyl)ureido)naphthalen-1-yl)oxy)pyridin-2-yl)amino)-2-methoxyphenyl)(methyl)phosphinic acid]","pH 6.5 FaSSCoF Solubility, Run 1",[1],>7.6 mg/mL
same,"pH 6.5 FaSSCoF Solubility, Run 2",[1],>5.5 mg/mL
"COc1cc(Nc2cc(Oc3ccc(NC(=O)Nc4cc(C(C)(C)C)cc(NS(C)(=O)=O)c4OC)c4ccccc34)ccn2)cc(OC)c1C(=O)NCCN1CCN(CCO)CC1 [Example 37, 4-((4-((4-(3-(5-(tert-Butyl)-2-methoxy-3-(methylsulfonamido)phenyl)ureido)naphthalen-1-yl)oxy)pyridin-2-yl)amino)-N-(2-(4-(2-hydroxyethyl)piperazin-1-yl)ethyl)-2,6-dimethoxybenzamide]",% Viability at 1 μg/mL,Jurkat cells,52.9%
same,% Viability at 5 μg/mL,Jurkat cells,55.8%
same,% Viability at 20 μg/mL,Jurkat cells,28.9%
same,"pH 6.5 FaSSCoF Solubility, Run 2",[1],0.024 mg/mL
"C#Cc1cc(Nc2nccc(Oc3ccc(NC(=O)Nc4cc(C(C)C)nn4-c4ccc(C)cc4)c4ccccc34)n2)cc(C(=O)NCCN2CCOCC2)c1 [Reference Compound B, 3-ethynyl-5-((4-((4-(3-(3-isopropyl-1-(p-tolyl)-1H-pyrazol-5-yl)ureido)naphthalen-1-yl)oxy)pyrimidin-2-yl)amino)-N-(2-morpholinoethyl)benzamide, reference compound]",% Parent Remaining,[2]; 0 min,100%
same,% Parent Remaining,"[2]; 60° C., 297 min",79%
same,% Parent Remaining,"[2]; 60° C., 1429 min",18%
same,decomposition under the conditions of the experiment,[2]; 60° C.,substantial decomposition
